# Experimental data taken from patent US9833497B2, “Human originated EGF domain proteins and use of the same” (CHENGDU SOURCEBIO LIMITED-LIABILITY COMPANY, priority 2013, dated 2017).
# Tests used:
# Format in all cases: cell-based
# [1] = tested on: E. coli DH5α; test: Antibacterial activity: MIC and growth curve against E. coli DH5α in 96-well plate; details: minimal inhibitory concentration against E. coli DH5α; 96-well plate, 5×10^5 CFU/mL, 37° C., judged after 8 h
# How it was run: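 Log-phase bacteria (OD600 ~0.5) resuspended in LB at 5×10^5 CFU/mL, exposed to recombinant protein at 50, 25, 12.5 μg/mL final in triplicate, 37 °C shaking at 175 rpm. OD600 read every 30 min; MIC is lowest concentration showing no growth.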
# [2] = tested on: E. coli BL21; test: MIC against Gram-negative bacteria: E. coli BL21; details: 5×10^5 CFU/mL
# How it was run: (§1)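 Purified recombinant human EGF domain proteins are tested by broth dilution in LB against a 5×10^5 CFU/mL inoculum, with two-fold serial dilutions run in triplicate. Plates are incubated at 37° C with shaking, and the MIC is read as the lowest protein concentration without growth.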
# [3] = tested on: Pseudomonas aeruginosa; test: MIC against Gram-negative bacteria: Pseudomonas aeruginosa; details: 5×10^5 CFU/mL
# How it was run: as §1
# [4] = tested on: Klebsiella pneumonia; test: MIC against Gram-negative bacteria: Klebsiella pneumonia; details: 5×10^5 CFU/mL
# How it was run: as §1
# [5] = tested on: Enterobacter cloacae; test: MIC against Gram-negative bacteria: Enterobacter cloacae; details: 5×10^5 CFU/mL
# How it was run: as §1
# [6] = tested on: Aeromonas hydrophila; test: MIC against Gram-negative bacteria: Aeromonas hydrophila; details: 5×10^5 CFU/mL
# How it was run: as §1
# [7] = tested on: Citrobacter diversus; test: MIC against Gram-negative bacteria: Citrobacter diversus; details: 5×10^5 CFU/mL
# How it was run: as §1
# [8] = tested on: Moraxella catarrhalis; test: MIC against Gram-negative bacteria: Moraxella catarrhalis; details: 5×10^5 CFU/mL
# How it was run: as §1
# [9] = tested on: Proteus mirabilis; test: MIC against Gram-negative bacteria: Proteus mirabilis; details: 5×10^5 CFU/mL
# How it was run: as §1
# [10] = tested on: Proteus vulgaris; test: MIC against Gram-negative bacteria: Proteus vulgaris; details: 5×10^5 CFU/mL
# How it was run: as §1
# [11] = tested on: Serratia marcescens; test: MIC against Gram-negative bacteria: Serratia marcescens; details: 5×10^5 CFU/mL
# How it was run: as §1
# [12] = E. coli BL21, 10 h cultivation at 37° C.
# [13] = P. aeruginosa, 10 h cultivation at 37° C.
# [14] = K. pneumonia, 10 h cultivation at 37° C.
# [15] = E. cloacae, 10 h cultivation at 37° C.
# [16] = A. hydrophila, 10 h cultivation at 37° C.
# [17] = C. diversus, 10 h cultivation at 37° C.
# [18] = M. catarrhalis, 10 h cultivation at 37° C.
# [19] = P. mirabilis, 10 h cultivation at 37° C.
# [20] = P. vulgaris, 10 h cultivation at 37° C.
# [21] = S. marcescens, 10 h cultivation at 37° C.
substance,measurement,setting,value
PRT641 (QAEECGILNGCENGRCVRVQEGYTCDCFDGYHLDTAK; listed as Homo sapiens),MIC,[1],50 mg/L
same,MIC E. coli BL21,"[2]; 96-well plate, 37° C., 10 h",25 mg/L
same,MIC P. aeruginosa,"[3]; 96-well plate, 37° C., 10 h",12.5 mg/L
same,MIC K. pneumonia,"[4]; 96-well plate, 37° C., 10 h",25 mg/L
same,MIC E. cloacae,"[5]; 96-well plate, 37° C., 10 h",50 mg/L
same,MIC A. hydrophila,"[6]; 96-well plate, 37° C., 10 h",25 mg/L
same,MIC C. diversus,"[7]; 96-well plate, 37° C., 10 h",12.5 mg/L
same,MIC M. catarrhalis,"[8]; 96-well plate, 37° C., 10 h",25 mg/L
same,MIC P. mirabilis,"[9]; 96-well plate, 37° C., 10 h",50 mg/L
same,MIC P. vulgaris,"[10]; 96-well plate, 37° C., 10 h",12.5 mg/L
same,MIC S. marcescens,"[11]; 96-well plate, 37° C., 10 h",50 mg/L
PRT207 (RSSNCSAQCHNHGVCNHKQECHCHAGWAPPHCA; listed as Homo sapiens),MIC,[1],12.5 mg/L
same,MIC (μg/mL) E. coli BL21,[2]; [12],50 µg/mL
same,MIC (μg/mL) P. aeruginosa,[3]; [13],12.5 µg/mL
same,MIC (μg/mL) K. pneumonia,[4]; [14],50 µg/mL
same,MIC (μg/mL) E. cloacae,[5]; [15],12.5 µg/mL
same,MIC (μg/mL) A. hydrophila,[6]; [16],50 µg/mL
same,MIC (μg/mL) C. diversus,[7]; [17],12.5 µg/mL
same,MIC (μg/mL) M. catarrhalis,[8]; [18],50 µg/mL
same,MIC (μg/mL) P. mirabilis,[9]; [19],12.5 µg/mL
same,MIC (μg/mL) P. vulgaris,[10]; [20],25 µg/mL
same,MIC (μg/mL) S. marcescens,[11]; [21],50 µg/mL
PRT237 (DINECTPPYSVYCGFNAVCYNVEGSFYCQCVPGYRLHSGNEQFSNSNENTCQ; listed as Homo sapiens),MIC,[1],25 mg/L
same,MIC (μg/mL) E. coli BL21,[2]; [12],12.5 µg/mL
same,MIC (μg/mL) P. aeruginosa,[3]; [13],25 µg/mL
same,MIC (μg/mL) K. pneumonia,[4]; [14],12.5 µg/mL
same,MIC (μg/mL) E. cloacae,[5]; [15],25 µg/mL
same,MIC (μg/mL) A. hydrophila,[6]; [16],12.5 µg/mL
same,MIC (μg/mL) C. diversus,[7]; [17],25 µg/mL
same,MIC (μg/mL) M. catarrhalis,[8]; [18],12.5 µg/mL
same,MIC (μg/mL) P. mirabilis,[9]; [19],25 µg/mL
same,MIC (μg/mL) P. vulgaris,[10]; [20],25 µg/mL
same,MIC (μg/mL) S. marcescens,[11]; [21],50 µg/mL
PRT79 (LPDPCDSNPCPANSYCSNDWDSYSCSCDPGYYGDNC; listed as Homo sapiens),MIC,[1],50 mg/L
same,MIC (μg/mL) E. coli BL21,"[2]; E. coli BL21, 96-well plate, 37° C., 10 h",25 µg/mL
same,MIC (μg/mL) P. aeruginosa,"[3]; Pseudomonas aeruginosa, 96-well plate, 37° C., 10 h",12.5 µg/mL
same,MIC (μg/mL) K. pneumonia,"[4]; Klebsiella pneumonia, 96-well plate, 37° C., 10 h",25 µg/mL
same,MIC (μg/mL) E. cloacae,"[5]; Enterobacter cloacae, 96-well plate, 37° C., 10 h",12.5 µg/mL
same,MIC (μg/mL) A. hydrophila,"[6]; Aeromonas hydrophila, 96-well plate, 37° C., 10 h",25 µg/mL
same,MIC (μg/mL) C. diversus,"[7]; Citrobacter diversus, 96-well plate, 37° C., 10 h",12.5 µg/mL
same,MIC (μg/mL) M. catarrhalis,"[8]; Moraxella catarrhalis, 96-well plate, 37° C., 10 h",12.5 µg/mL
same,MIC (μg/mL) P. mirabilis,"[9]; Proteus mirabilis, 96-well plate, 37° C., 10 h",50 µg/mL
same,MIC (μg/mL) P. vulgaris,"[10]; Proteus vulgaris, 96-well plate, 37° C., 10 h",12.5 µg/mL
same,MIC (μg/mL) S. marcescens,"[11]; Serratia marcescens, 96-well plate, 37° C., 10 h",50 µg/mL
PRT1446 (FLSPCVDDCGPYGQCKLLRTHNYLYAACECKAGWRGWGCT; listed as Homo sapiens),MIC,[1],12.5 mg/L
same,MIC against E. coli BL21,[2]; [12],12.5 mg/L
same,MIC against P. aeruginosa,"[3]; Pseudomonas aeruginosa, 10 h cultivation at 37° C.",25 mg/L
same,MIC against K. pneumonia,"[4]; Klebsiella pneumonia, 10 h cultivation at 37° C.",25 mg/L
same,MIC against E. cloacae,"[5]; Enterobacter cloacae, 10 h cultivation at 37° C.",12.5 mg/L
same,MIC against A. hydrophila,"[6]; Aeromonas hydrophila, 10 h cultivation at 37° C.",25 mg/L
same,MIC against C. diversus,"[7]; Citrobacter diversus, 10 h cultivation at 37° C.",12.5 mg/L
same,MIC against M. catarrhalis,"[8]; Moraxella catarrhalis, 10 h cultivation at 37° C.",12.5 mg/L
same,MIC against P. mirabilis,"[9]; Proteus mirabilis, 10 h cultivation at 37° C.",12.5 mg/L
same,MIC against P. vulgaris,"[10]; Proteus vulgaris, 10 h cultivation at 37° C.",25 mg/L
same,MIC against S. marcescens,"[11]; Serratia marcescens, 10 h cultivation at 37° C.",12.5 mg/L
